This test concerns wild-type seHAS. The experiment in a line: Utilization of UDP-GlcUA and UDP-GlcNAc by wild-type seHAS after NEM or sodium arsenite treatment. The test is classed as biochemical, Streptococcus equisimilis. To be noted: membranes 4° C. 1 h with 5 mM NEM or 10 mM sodium arsenite. The procedure: FIG. 3. Effect of NEM or sodium arsenite treatment on the utilization of UDP-GIcUA and UDP-GIcNAc by wild-type seHAS. E. coli membranes containing seHAS protein were incubated at 4° C. for 1 h in PBS containing 5 mM NEM or 10 mM Sodium Arsenite (SodArs), and the control membranes were incubated with PBS alone. Michaelis-Menten constants (Km) were calculated from the activities of seHAS at varying concentrations of UDP-GIcUA or UDP-GIcNAc.
Modification of the protein by NEM could affect any one or several of the six discrete functions that HAS must perform in order to synthesize HA. In order to determine if one of the nucleotide-sugar binding sites was affected by NEM, we examined the UDP-GIcUA and UDP-GIcNAc saturation profiles for treated and untreated seHAS (FIG. 3 and Table III).
E. coli SURE cells transformed with plasmids containing various seHAS mutants were grown in LB medium with vigorous shaking at 32° C. to A600 ˜0.8 and induced with 1 mM isopropyl-β-thiogalactoside for 3 h. Cells were harvested and membranes were prepared as described previously. The kinetic constants for HAS were determined at 37° C. in 100 μl of 50 mM sodium and potassium phosphate, pH 7.0, with 20 mM MgCl2, 1 mM DTE, 240 μM UDP-GIcUA, 0.7 μM UDP-[^14C]GIcUA and 0.6–1.0 mM UDP-GIcNAc. in 100 μl of 25 mM sodium and potassium phosphate, pH 7, containing 50 mM NaCl, 20 mM MgCl2, 1 mM dithiothreitol, 1 mM UDP-GIcUA, 0.68 μM UDP-GIcUA and 1 mM UDP-GIcNAc. Some assays also contained 0.1 mM EDTA and 20% glycerol (v/v). To initiate the enzyme reaction, ˜0.5–40 μg of membrane protein was added and the mixtures were gently shaken in a MicroMixer X-36 (Tiatec) at 30° C. for 1–2 h. Reactions were terminated by the addition of SDS to a final concentration of 2% (w/v). The incorporation of radioactive [^14C]GIcUA was determined by descending paper chromatography and the Km and Vmax values were determined as described by Tlapak-Simmons et al (1999b). Data were analyzed by the methods of Michaelis-Menton or Hill. Protein content was determined by the method of Bradford using bovine serum albumin as the standard. All Cys-mutant or sulfhydryl-treated seHAS samples were assayed in duplicate or triplicate using two or three independent membrane preparations. Results are presented as the mean±standard errors. All enzyme assays were performed under conditions that were linear with respect to time and protein concentration. None of the seHAS variant enzymes were unstable under the conditions employed.

Like-named read-outs stand apart in the source and are kept apart here.

As a reminder, the Km is the substrate concentration at which the rate is half of its maximum.

As to `CCN1C(=O)C=CC1=O` [N-ethylmaleimide], the “Vmax of treated wild-type seHAS, UDP-GlcNAc” value is 7.3 ± 2.2 nmol/µg/h and the “Vmax of treated wild-type seHAS, UDP-GlcUA” value came to 7.3 ± 2.2 nmol/µg/h. The Km (read-out: Km for UDP-GlcNAc of treated wild-type seHAS) amounted to 82 ± 17 µM. The Km (read-out: Km for UDP-GlcUA of treated wild-type seHAS) came to 57 ± 5 µM.

The values are drawn from US7094581B2, “Hyaluronan synthases and methods of making and using same” (The Board of Regents of the University of Oklahoma, priority 1998, dated 2006).
